Drawing on patent US8558028B2, “Compound capable of inhibiting 17-beta hydroxysteriod dehydrogenase” (University of Bath of Claverton Down, priority 2007, dated 2013), this text covers inhibition for 32 compounds.

The target in this test is T1, human 17β-HSD3 (Homo sapiens, UniProt P37058).
T1 construct: 293-EBNA cells stably transfected with 17β-HSD Type 3; expressed in transfected cells; host or cells: human 293-EBNA cells, stably transfected
T1 sequence (P37058 1-310): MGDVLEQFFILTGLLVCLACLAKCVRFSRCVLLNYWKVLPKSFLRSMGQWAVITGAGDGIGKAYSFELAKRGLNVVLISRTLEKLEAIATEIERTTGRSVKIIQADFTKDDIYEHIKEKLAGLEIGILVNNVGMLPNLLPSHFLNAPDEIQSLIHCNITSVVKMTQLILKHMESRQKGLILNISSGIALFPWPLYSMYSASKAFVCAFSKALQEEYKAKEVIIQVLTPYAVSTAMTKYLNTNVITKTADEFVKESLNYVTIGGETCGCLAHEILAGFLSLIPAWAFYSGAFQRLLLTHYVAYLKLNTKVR
Put plainly: 17β-Hydroxysteroid dehydrogenase Type 3 activity in stably transfected 293-EBNA cells (TLC assay, 3H-androstenedione to testosterone). The following applies: human 293-EBNA cells stably transfected with 17β-HSD Type 3, mean of at least 2 measurements, typically SD ±5%. In kind it is cell-based. As for the experimental part: Assay Protocol-17β-Hydroxysteroid Dehydrogenase Type 3 Activity in the Presence of Regulatory Agents
293-EBNA cells stably transfected with 17β-HSD Type 3 were plated at 50,000 cells/well in 24 well plates in complete growth medium. After 48 hours 2-3 nM ^3H-Androstenedione in assay medium (500 ml DMEM medium with 5 ml 100×L-Glutamine, and 5 ml 7.5% sodium bicarbonate solution) was added with or without test compound at 1.5 ml/well (triplicate), and the cells incubated at 37° C.
Two hours later 1 ml medium was removed from each well and placed in a 125×16 mm glass test tube containing 25 μl of recovery solution (5000 dpm ^14C-Testosterone and 25 μg unlabelled
Testosterone). Ether (4 ml) was added and the tubes vortexed at high speed for 2×30 sec. After the samples had settled into two phases they were snap-frozen in a dry ice/methanol bath. The upper organic phase was decanted into 75×12 mm tubes and evaporated to dryness under an airstream using a sample concentrator (TECHNE) at 40° C. The samples were resuspended in ether (8 drops, then a further 3), spotted onto silica 60 F254 20 cm×20 cm TLC plates, and separated using a 4:1 v/v dichloromethane:ethyl acetate mobile phase.
After drying the plates, the major spots were marked under a UV lamp, cut out, and placed in individual scintillation vials containing 0.5 ml methanol. These were then shaken lightly and allowed to stand for 15 min before adding 10 ml of EcoScint A (scintillation fluid) to each tube along with 0.5 ml assay medium, and counted in a scintillation spectrometer (Beckman) using a program for dual [^3H/^14C] isotopes. The number of cells/well was then counted using a Coulter counter (Beckman).
The inhibitory activity of the test compounds is then assessed by calculating the amount of product formed correcting for crossover between isotope counts, recovery, dilution and non-enzymatic degradation (fmol/hr/million cells) with and without inhibitor, (% inhibition).
Compounds were tested at 10 μM for inhibition of human 17β-HSD3 with typically ˜200,000 to 300,000 human 293-EBNA cells/well.
On to `CC(=O)Nc1ccccc1CNc1ccccc1Oc1ccc(Cl)cc1`, for which the inhibition at 10 µM was above 60%.
Take `CC(=O)Nc1ccccc1CNc1ccccc1Oc1ccc(OC(F)(F)F)cc1`: the inhibition at 10 µM is above 60%.
As for `CC(=O)Nc1ccccc1CNc1cc(F)ccc1Oc1ccc(Cl)cc1`, the inhibition at 10 µM is above 60%.
`CC(=O)Nc1cc2c(cc1CNc1ccccc1Oc1ccc(Cl)cc1)OCO2`: the inhibition at 10 µM is above 60%.
The compound `COc1cc(CNc2ccccc2Oc2ccc(Cl)cc2)c(NC(C)=O)cc1OC` displayed an inhibition at 10 µM below 20%.
On to `COc1cc(CNc2ccccc2Oc2ccc(Cl)cc2Cl)c(NC(C)=O)cc1OC`, for which the inhibition at 10 µM is below 20%.
For `CC(=O)Nc1c(CNc2ccccc2Oc2ccc(Cl)cc2)ccc2ccccc12`, the inhibition at 10 µM was below 20%.
For the compound `CC(=O)Nc1ccc(C)cc1CNc1ccccc1Oc1ccc(Cl)cc1`, the inhibition at 10 µM is above 60%.
As for `CC(=O)Nc1ccc(Cl)cc1CNc1ccccc1Oc1ccc(Cl)cc1`, the inhibition at 10 µM was above 60%.
Regarding `CC(=O)Nc1ccc(Cl)cc1CNc1ccccc1Oc1ccc(Cl)cc1Cl`, the inhibition at 10 µM was in the range of 20 to 60%.
The compound `CC(=O)Nc1ccc(Cl)cc1CNc1ccccc1Oc1ccc(OC(F)(F)F)cc1` came in with an inhibition at 10 µM above 60%.
Regarding `CC(=O)Nc1ccccc1C(=O)Nc1ccccc1Oc1ccc(Cl)cc1`, the inhibition at 10 µM was below 20%.
On to `O=C(Nc1ccccc1C(=O)Nc1ccccc1Oc1ccc(Cl)cc1)c1ccccc1`, for which the inhibition at 10 µM was below 20%.
`CC(=O)N(C)c1ccccc1CNc1ccccc1Oc1ccc(Cl)cc1` registered an inhibition at 10 µM above 60%.
The result for `CC(=O)N(C)c1ccccc1CN(C)c1ccccc1Oc1ccc(Cl)cc1` reads 20 to 60%; that for `CC(=O)Nc1ccccc1CN(C)c1ccccc1Oc1ccc(Cl)cc1`, below 20%.
Regarding `CC(=O)Nc1ccccc1CN(C(C)=O)c1ccccc1Oc1ccc(Cl)cc1`, the inhibition at 10 µM is below 20%.
Regarding `CC(=O)Nc1ccc(CNc2ccccc2Oc2ccc(Cl)cc2)cc1`, the inhibition at 10 µM was in the range of 20 to 60%.
For `CC(=O)Nc1ccc(CNc2ccccc2Oc2ccc(Cl)cc2Cl)cc1`, the inhibition at 10 µM is below 20%.
`CC(=O)Nc1cccc(CNc2ccccc2Oc2ccc(Cl)cc2)c1` yielded an inhibition at 10 µM of 20 to 60%.
The compound `CC(=O)N1CCC(Nc2ccccc2CN(C(C)=O)c2ccccc2Oc2ccc(Cl)cc2)CC1` yielded an inhibition at 10 µM of 20 to 60%.
As for `CC(=O)N1CCC(Nc2ccccc2CNc2ccccc2Oc2ccc(Cl)cc2)CC1`, the inhibition at 10 µM lay in the range of 20 to 60%.
Compound `CC(=O)N1CCC(C(=O)Nc2ccccc2CNc2ccccc2Oc2ccc(Cl)cc2)CC1` displayed an inhibition at 10 µM above 60%.
In turn, `CC(=O)N1CCC(C(=O)Nc2cccc(CNc3ccccc3Oc3ccc(Cl)cc3)c2)CC1` showed an inhibition at 10 µM above 60%.
`CCNc1ccccc1C(C)Nc1ccccc1Oc1ccc(Cl)cc1` (centres unmarked) gave an inhibition at 10 µM of 20 to 60%.
The compound `CCN(C(C)=O)c1ccccc1C(C)Nc1ccccc1Oc1ccc(Cl)cc1` (centres unmarked) showed an inhibition at 10 µM above 60%.
Compound `C=CCC(Nc1ccccc1Oc1ccc(Cl)cc1)c1ccccc1NC(C)=O` (centres unmarked) displayed an inhibition at 10 µM above 60%.
Turning to `C=CC[C@@H](Nc1ccccc1Oc1ccc(Cl)cc1)c1ccccc1NC(C)=O`, the inhibition at 10 µM was 20 to 60%.
Regarding `C=CC[C@H](Nc1ccccc1Oc1ccc(Cl)cc1)c1ccccc1NC(C)=O`, the inhibition at 10 µM was above 60%.
`CC(=O)Nc1ccccc1C(Cc1ccccc1)Nc1ccccc1Oc1ccc(Cl)cc1` (centres unmarked) yielded an inhibition at 10 µM below 20%.
Regarding `CCCC(Nc1ccccc1Oc1ccc(Cl)cc1)c1ccccc1NC(C)=O` (centres unmarked), the inhibition at 10 µM is above 60%.
As to `CC(=O)Nc1ccccc1C(C)Nc1ccccc1Oc1ccc(Cl)cc1` (centres unmarked), the inhibition at 10 µM was above 60%.
